Results on three compounds are retold here after ChEMBL document CHEMBL1149004, “Ficulinic acid A and B, two novel cytotoxic straight-chain acids from the sponge Ficulina ficus” (1986).

The subject of one assay is Walker 256. Description: Growth inhibition of rat Walker 256 cells. The assay is classed as functional, cell-based.
For another assay, the system named is L1210. Description: Cytotoxicity against mouse L1210 cells assessed as inhibition of DNA synthesis by [3H]thymidine incorporation assay. Type of assay: functional. As to conditions: read-out: ID50 (the source's name). (In general: Incorporation of labelled thymidine or its analogues reports DNA synthesis.)

Values after ≈ are worked out from the molar mass of the structure shown. Active and inactive are the calls of the source. The rule behind the calls is not given here.

As for `CCCCC/C=C\CCC(=O)CCCCCCO`, in the assay with Walker 256, the result was Active. As for `CCCCCCC/C=C/C(=O)CCCCCCCC(CCCCCCC)C(=O)O` (stereo not drawn) [FICULINIC ACID A], the IC50 in the assay on L1210 came to 10 µg/mL (≈ 24.5 µM). Regarding `CCCCCCC/C=C/C(=O)CCCCCCCCCC(CCCCCCC)C(=O)O` (stereo not drawn) [FICULINIC ACID B], in the assay on L1210, the IC50 came out at 12 µg/mL (≈ 27.5 µM).
